Data set [1] is described as follows: nBTPT stability on YaraVera Amidas (UAS) during storage, HPLC analysis of nBTPT content. The class given is physicochemical. The conditions noted are these: for Stabilizing effect on nBTPT on UAS: Experiment 4, MgSO4/MgO combinations, FIG. 4. As for the experimental part:
For lab scale experiments, 1.2 kg of solid fertilizer material was added to a lab scale drum. […] A residence time of 10 minutes was applied and the rotating speed of the drum was consequently the same in each experiment. […] Before use, the moisture-repellent coating was preheated to 80° C. Larger scale experiments with amounts up to 40 kg of fertilizer material were performed in a concrete mixer. The samples were stored under several conditions, dependent on the type of samples: • Bagged at room temperature (18-25° C.) • Bagged at 40° C. • Open to air at room temperature (18-25° C.) 3.

A short description of data set [2]: pH of MgSO4 grades. It counts as physicochemical. The note with it: MgSO4 grade.

Here are results for five molecules from US11578009B2, “Urea-based blend composition and method for the manufacture thereof” (YARA INTERNATIONAL ASA, priority 2018, dated 2023).

As to `[O]=[Mg]` [MgO, magnesium oxide, reference compound], in data set [1] (462 ppm nBTPT), the “Stabilizing effect on nBTPT on UAS” value is listed as “more effective than CaO”.

In data set [2], `O=S(=O)([O-])[O-].[Mg+2]` [MgSO4 99.5%] had a pH of 8.5.

In turn, `O=S(=O)([O-])[O-].[Mg+2]` [MgSO4 99.999%] returned a pH in data set [2] of 6.1.

For `O=S(=O)([O-])[O-].[Mg+2]` [MgSO4, magnesium sulphate], in data set [1] (Experiment 2, open to air at room temperature 40 days (FIG. 2A) and in bags at 40° C. 8 days (FIG. 2B), 462 ppm nBTPT), the “Stabilizing effect on nBTPT in the presence of UAS” value is given as “comparable with the effect of the prior art compound (CaO)”. In data set [1] (462 ppm nBTPT), the “Stabilizing effect on nBTPT on UAS” value is “little effect”. Besides, in data set [1] (more than 1 weight % in the composition), the “Stabilizing effect at more than 1 weight % of magnesium sulphate” value was “did not produce a proportionally better stabilizing effect”.

As to `O=S(=O)([O-])[O-].[Na+].[Na+]` [Na2SO4, reference compound], in data set [1] (Experiment 3, open plastic containers at room temperature for 21 days, 462 ppm nBTPT, FIG. 3), the “Stability of nBTPT on YaraVera Amidas product” value was “negative effect”.
